Results published in patent US11702426B2, “Macrocyclic deaza-purinones for the treatment of viral infections” (JANSSEN SCIENCES IRELAND UNLIMITED COMPANY, priority 2013, dated 2023).
Read-outs that look alike come from different tables or passages of the source. One block for each compound: values may come before it.

Tests used:
[1] = rcm bond
[2] = system: interferon production in human PBMC; assay: Interferon production in human PBMC, read out on HEK-ISRE-luc reporter cells; format: cell-based; settings: Homo sapiens, PBMC, 24 h, lowest effective concentration, PBMC incubated overnight with compound, supernatant transferred to HEK-ISRE-luc cells, read-out: PBMC HEK-ISRE-luc (LEC; μM)
Method: Activation of human TLR7 results in robust production of interferon by plasmacytoid dendritic cells present in human blood. The potential of compounds to induce interferon was evaluated by determination of interferon in the conditioned media from peripheral blood mononuclear cells (PBMC). The presence of interferon in the samples was determined, using an interferon reporter cell line stably expressing an interferon-stimulated responsive elements (ISRE)-luc reporter construct. The ISRE element with sequence TAGTTTCACTTTCCC (SEQ ID NO: 1) is highly responsive to the STAT1-STAT2-IRF9 transcription factor, which becomes activated upon binding of IFN-I to the IFN receptor. Briefly, PBMCs were prepared from buffy coats of at least two donors using a standard Ficoll centrifugation protocol. Isolated PBMCs were resuspended in RPMI medium supplemented with 10% human AB serum and 2×10^5 cells/well were dispensed into 384-well plates containing compounds (70 μL total volume). After overnight incubation of the PBMCs with the compounds, 10 μL of supernatant was transferred to 384-well plates containing 5×10^3 HEK-ISRE-luc cells/well in 30 μL (plated the day before). Following 24 hours of incubation, activation of the ISRE elements was measured by assaying luciferase activity using 40 μL/well Steady Lite Plus substrate (Perkin Elmer) and measured with ViewLux ultraHTS microplate imager (Perkin Elmer). The stimulating activity of each compound on the HEK-ISRE-luc cells was reported as LEC. The LEC in turn indicates the degree of ISRE activation on transfer of a defined amount of PBMC culture medium. Recombinant interferon alfa-2a (Roferon-A) was used as a standard control compound.

[3] = target: T1, human TLR7 (Homo sapiens, UniProt Q9NYK1); assay: HEK293 TLR7-NFκB-luc cellular reporter assay; format: cell-based; settings: lowest effective concentration; HEK293 transiently transfected with TLR7 and NFκB-luc; 6 hours incubation
T1 construct: expressed in transfected cells; host or cells: HEK293
T1 sequence (Q9NYK1 27-1049): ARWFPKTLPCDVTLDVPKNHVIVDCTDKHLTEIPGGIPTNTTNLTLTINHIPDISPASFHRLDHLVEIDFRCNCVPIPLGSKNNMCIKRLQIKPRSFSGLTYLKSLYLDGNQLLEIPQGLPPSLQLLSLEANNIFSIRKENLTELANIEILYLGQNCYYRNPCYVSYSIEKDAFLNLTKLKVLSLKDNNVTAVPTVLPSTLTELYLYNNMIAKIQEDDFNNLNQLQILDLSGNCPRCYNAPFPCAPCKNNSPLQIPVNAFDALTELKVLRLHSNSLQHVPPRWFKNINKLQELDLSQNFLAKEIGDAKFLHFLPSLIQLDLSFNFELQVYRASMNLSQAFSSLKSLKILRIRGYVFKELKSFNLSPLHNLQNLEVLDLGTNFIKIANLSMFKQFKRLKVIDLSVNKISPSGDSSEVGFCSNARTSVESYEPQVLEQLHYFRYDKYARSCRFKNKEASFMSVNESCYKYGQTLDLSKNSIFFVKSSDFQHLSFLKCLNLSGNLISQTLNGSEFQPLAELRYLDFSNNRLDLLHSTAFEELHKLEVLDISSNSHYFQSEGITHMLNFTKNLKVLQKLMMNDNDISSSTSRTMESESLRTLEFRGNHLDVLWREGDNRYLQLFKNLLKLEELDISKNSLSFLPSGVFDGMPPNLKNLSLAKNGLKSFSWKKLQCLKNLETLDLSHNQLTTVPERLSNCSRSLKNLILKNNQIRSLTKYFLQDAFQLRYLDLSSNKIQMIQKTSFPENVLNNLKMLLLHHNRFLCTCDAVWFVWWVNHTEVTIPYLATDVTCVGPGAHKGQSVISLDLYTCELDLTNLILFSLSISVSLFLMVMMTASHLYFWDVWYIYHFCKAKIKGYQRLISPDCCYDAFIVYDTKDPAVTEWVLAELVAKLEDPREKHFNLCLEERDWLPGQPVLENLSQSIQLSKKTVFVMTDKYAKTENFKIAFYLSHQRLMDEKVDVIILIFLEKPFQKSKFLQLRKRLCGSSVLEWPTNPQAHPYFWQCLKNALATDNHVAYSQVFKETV
Method: (§1) The ability of compounds to activate human TLR7 and TLR8 was assessed in a cellular reporter assay using HEK293 cells transiently transfected with a TLR7 or TLR8 expression vector and NFκB-luc reporter construct. Briefly, HEK293 cells were grown in culture medium (DMEM supplemented with 10% FCS and 2 mM Glutamine). For transfection of cells in 15 cm dishes, cells were detached with Trypsin-EDTA, transfected with a mix of CMV-TLR7 or TLR8 plasmid (1,700 ng), NFκB-luc plasmid (850 ng) and a transfection reagent and incubated 48 hours at 37° C. in a humidified 5% CO2 atmosphere. Transfected cells were then washed in PBS, detached with Trypsin-EDTA, and resuspended in medium to a density of 1.25×10^5 cells/mL. Forty microliters of cells were then dispensed into each well in 384-well plates, where 200 nL of compound in 100% DMSO was already present. Following 6 hours incubation at 37° C., 5% CO2, the luciferase activity was determined by adding 15 μl of Steady Lite Plus substrate (Perkin Elmer) to each well and readout performed on a ViewLux ultraHTS microplate imager (Perkin Elmer). Dose response curves were generated from measurements performed in quadruplicates. Lowest effective concentrations (LEC) values, defined as the concentration that induces an effect which is at least two fold above the standard deviation of the assay, were determined for each compound.

[4] = system: HEK293 NFκB-luc; assay: Counterscreen: HEK293 cells transfected with NFκB-luc reporter construct alone; format: cell-based; settings: lowest effective concentration; greater than the highest tested concentration
Method: In parallel, a similar dilution series of compound was used (200 nL of compound in 100% DMSO) with 40 μL per well of cells transfected with NFκB-luc reporter construct alone (1.25×10^5 cells/mL). Six hours after incubation at 37° C., 5% CO2, the luciferase activity was determined by adding 15 μl of Steady Lite Plus substrate (Perkin Elmer) to each well and readout performed on a ViewLux ultraHTS microplate imager (Perkin Elmer). Counterscreen data is reported as LEC.

[5] = target: T2, human TLR8 (Homo sapiens, UniProt Q9NR97); assay: HEK293 TLR8-NFκB-luc cellular reporter assay; format: cell-based; settings: lowest effective concentration; greater than the highest tested concentration
T2 construct: expressed in transfected cells; host or cells: HEK293
T2 sequence (Q9NR97 27-1041): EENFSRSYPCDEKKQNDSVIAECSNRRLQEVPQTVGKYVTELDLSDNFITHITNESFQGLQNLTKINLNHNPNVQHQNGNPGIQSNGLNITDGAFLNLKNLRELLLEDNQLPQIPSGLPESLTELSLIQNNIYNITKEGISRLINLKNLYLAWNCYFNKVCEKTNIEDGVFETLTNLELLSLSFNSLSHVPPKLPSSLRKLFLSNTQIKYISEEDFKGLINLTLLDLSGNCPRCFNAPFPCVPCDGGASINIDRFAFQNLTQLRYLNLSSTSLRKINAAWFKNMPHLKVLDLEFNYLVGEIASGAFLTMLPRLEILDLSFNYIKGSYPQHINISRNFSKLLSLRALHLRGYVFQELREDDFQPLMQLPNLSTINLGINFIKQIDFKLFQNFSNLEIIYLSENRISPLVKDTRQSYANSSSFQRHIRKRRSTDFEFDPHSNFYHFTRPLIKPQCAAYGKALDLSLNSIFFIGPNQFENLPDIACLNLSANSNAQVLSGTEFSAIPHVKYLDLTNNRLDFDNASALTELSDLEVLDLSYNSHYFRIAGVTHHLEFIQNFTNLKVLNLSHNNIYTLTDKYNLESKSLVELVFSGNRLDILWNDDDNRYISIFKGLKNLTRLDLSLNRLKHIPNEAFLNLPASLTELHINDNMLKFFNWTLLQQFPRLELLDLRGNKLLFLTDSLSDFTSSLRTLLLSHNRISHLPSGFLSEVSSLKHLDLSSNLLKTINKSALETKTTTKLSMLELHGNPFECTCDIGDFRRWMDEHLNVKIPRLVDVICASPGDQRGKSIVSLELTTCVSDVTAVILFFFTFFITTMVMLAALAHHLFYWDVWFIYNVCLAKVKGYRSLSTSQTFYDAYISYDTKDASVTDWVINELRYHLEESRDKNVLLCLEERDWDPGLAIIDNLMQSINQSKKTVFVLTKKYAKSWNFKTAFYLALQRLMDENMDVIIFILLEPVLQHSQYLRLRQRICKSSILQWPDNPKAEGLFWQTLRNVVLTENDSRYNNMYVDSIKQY
Method: as §1

SMILES: CCOC(=O)N1Cc2cccc(c2)N(C(=O)OC(C)(C)C)CC=CCCOc2cc1c([N+](=O)[O-])c(N)n2
ring closure, yield of all isomers ([1]; from C=CCCOc1cc(N(Cc2cccc(N(CC=C)C(=O)OC(C)(C)C)c2)C(=O)OCC)c([N+](=O)[O-])c(N)n1, Grubbs catalyst 2nd generation, dichloromethane, 6.93 mM, 25.0 °C, 24.0 h): 67%

SMILES: CCOC(=O)N1Cc2cccc(c2)N(C(=O)OC(C)(C)C)CC=CCOc2cc1c([N+](=O)[O-])c(N)n2
ring closure, yield of all isomers ([1]; from C=CCOc1cc(N(Cc2cccc(N(CC=C)C(=O)OC(C)(C)C)c2)C(=O)OCC)c([N+](=O)[O-])c(N)n1, Grubbs-Hoveyda catalyst 2nd generation (with chlorodicyclohexylborane), 1,2-dichloroethane, 4.1 mM, 120.0 °C, 16.0 h): 40%

SMILES: CCOC(=O)N1Cc2cccc(c2)OCC=CCCOc2cc1c([N+](=O)[O-])c(N)n2
ring closure, yield of all isomers ([1]; from C=CCCOc1cc(N(Cc2cccc(OCC=C)c2)C(=O)OCC)c([N+](=O)[O-])c(N)n1, Grubbs 2nd generation, CH2Cl2, 5.22 mM, 25.0 °C, 20.0 h): 15%

SMILES: CCOC(=O)N1Cc2ncccc2OCC=CCCOc2cc1c([N+](=O)[O-])c(N)n2
ring closure, yield of all isomers ([1]; from C=CCCOc1cc(N(Cc2ncccc2OCC=C)C(=O)OCC)c([N+](=O)[O-])c(N)n1, Hoveyda-Grubbs 2nd generation (with chlorodicyclohexylborane), 1,2-dichloroethane, 3.6 mM, 120.0 °C, 3.0 h): 22%

SMILES: CCOC(=O)N1Cc2cccc(c2)CC=CCCOc2cc1c([N+](=O)[O-])c(N)n2
ring closure, yield of all isomers ([1]; from C=CCCOc1cc(N(Cc2cccc(CC=C)c2)C(=O)OCC)c([N+](=O)[O-])c(N)n1, Grubbs 2nd generation, CH2Cl2, 3.38 mM, 25.0 °C, 72.0 h): 33%

SMILES: CCOC(=O)N1Cc2cccc(c2)OCC=CCOc2cc1c([N+](=O)[O-])c(N)n2
ring closure, yield of all isomers ([1]; from C=CCOc1cccc(CN(C(=O)OCC)c2cc(OCC=C)nc(N)c2[N+](=O)[O-])c1, Hoveyda-Grubbs 2nd generation (with chlorodicyclohexylborane), 1,2-dichloroethane, 3.47 mM, 120.0 °C, 37.0 h): 19%

HEK293 TLR7-NFκB-luc (LEC; μM) [3]: 2.38 µM
LEC on HEK293 TLR8-NFκB-luc [5]: > 10 µM
SMILES: Nc1nc2cc3c1nc(O)n3Cc1cccc(c1)CCCCCO2 [Compound 4]
minimal effective concentration [2]: 2.56 µM
LEC on HEK293 NFκB-luc (counterscreen) [4]: > 10 µM

SMILES: CCOC(=O)N1Cc2cc(OC)cc(c2)OCC=CCCOc2cc1c([N+](=O)[O-])c(N)n2
ring closure, yield of all isomers ([1]; from C=CCCOc1cc(N(Cc2cc(OC)cc(OCC=C)c2)C(=O)OCC)c([N+](=O)[O-])c(N)n1, Grubbs 2nd generation, CH2Cl2, 5.3 mM, 25.0 °C, 16.0 h): 41%
